Assay results from US20040082773A1, “Modified PAR receptors, their preparation and their uses for selecting compounds which modulate PAR activity” (Pfizer Inc., priority 2002, published 2004).
Substitutions are numbered along the chain they refer to. Where no end group is shown, it is not given here.

Experiments:
PAR-2Mut2 receptor [1] = biological target: T1, PAR-2Mut2 receptor (Homo sapiens, UniProt P55085); test: Calcium release direct measurement (FLIPR), CHO-NFAT-PAR-2Mut2 cells; type: cell-based
T1 construct: indeed comprising amino acids 43 to 397 of the precursor of human PAR-2; expressed in transfected cells
T1 sequence (P55085 43-397): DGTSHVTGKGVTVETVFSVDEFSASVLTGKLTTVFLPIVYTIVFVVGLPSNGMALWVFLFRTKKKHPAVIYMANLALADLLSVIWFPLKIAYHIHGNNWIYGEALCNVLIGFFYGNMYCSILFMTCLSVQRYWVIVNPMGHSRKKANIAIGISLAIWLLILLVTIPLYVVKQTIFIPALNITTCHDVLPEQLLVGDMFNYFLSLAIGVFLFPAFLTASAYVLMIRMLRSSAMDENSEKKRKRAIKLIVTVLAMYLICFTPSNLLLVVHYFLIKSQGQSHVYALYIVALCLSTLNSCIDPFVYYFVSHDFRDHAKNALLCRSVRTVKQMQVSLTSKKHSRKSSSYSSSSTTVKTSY
Description: (§1) The cells used for these tests were: CHO-NFAT-PAR-2-MUT2, CHO-NFAT-PAR-2-MUT3, CHO-NFAT-PAR2-WT and CHO-NFAT-WT.
(§2) The day before the experiment, the cells, were seeded into 384 well-plate in a medium DMEM glutamax (ref: 61965-026 Invitrogen, fetal calf serum 10% (ref: 10270106 Invitrogen), gentamycin 50 mg/ml 0.25% (ref: 15750-037 Invitrogen) at 25000 cells/well/50 μL.
(§3) The day of the experiment, the medium was discarded (by turning the plate). 50 μl of HBSS (Invitrogen réf: 14025.050), hepes (Invitrogen ref: 15630-05620 mM) were added to each well, HBSS was then discarded by turning the plate. 10 ml of Calcium kit loading solution and 10 ml HBSS, hepes 20 mM and 200 μl probenecid 250 μM were mixed and then 30 μl of this solution was added per well; plates were then incubated during 2 hours at 37° C. 4% CO2. 1.2 μl of a 250 μM compound in 25% DMSO to be tested and 3.8 μl HBSS, hepes 20 mM were added (on the Minitrak Va., Packard), the plates are transferred to the FLIPR and 25 μl 7.2 μM SLIGRL were added.
(§4) The dye is excited with the 488 nm excitation line of the argon laser and emits at 550 nm. The FLIPR quantifies the release of intracellular calcium in real time, the fluorescence is measured during 90 seconds.

CHO-NFAT cells [2] = test: Beta-lactamase reporter assay, CHO-NFAT control cells; type: cell-based
PAR-2Mut3 receptor = biological target: T2, PAR-2Mut3 receptor (Homo sapiens, UniProt P55085); test: Calcium release direct measurement (FLIPR), CHO-NFAT-PAR2-Mut3 cells; type: cell-based
T2 construct: indeed comprising amino acids 57 to 397 of the precursor of human PAR-2; expressed in transfected cells
T2 sequence (P55085 57-397): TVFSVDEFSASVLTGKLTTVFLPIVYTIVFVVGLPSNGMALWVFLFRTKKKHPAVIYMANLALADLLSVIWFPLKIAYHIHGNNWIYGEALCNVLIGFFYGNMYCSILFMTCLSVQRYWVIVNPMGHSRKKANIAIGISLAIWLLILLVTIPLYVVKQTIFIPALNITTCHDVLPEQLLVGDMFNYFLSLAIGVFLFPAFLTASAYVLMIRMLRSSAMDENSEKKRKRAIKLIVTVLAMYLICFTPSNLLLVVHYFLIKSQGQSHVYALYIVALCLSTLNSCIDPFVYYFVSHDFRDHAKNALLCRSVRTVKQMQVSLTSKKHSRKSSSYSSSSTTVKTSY
Description: as §1, §2, §3, §4

CHO-NFAT cells [3] = test: Calcium release direct measurement (FLIPR), CHO-NFAT control cells; type: cell-based
Description: as §1
The day before the experiment, cells were seeded into 384 well-plate in a complete medium at 25000 cells/well/50 μL.
The day after, the medium was discarded (by turning the plate). 50 μl of HBSS, hepes 20 mM were added to each well, HBSS was then discarded by turning the plate. This was done twice.
10 ml of Calcium kit loading solution (solution prepared as described above) and 10 ml HBSS, hepes 20 mM and 200 μl probenecid 250 μM were mixed, and 30 μl of this solution per well were added, plates were incubated during 2 hours at 37° C. 5% CO2.
1.2 μl of compound to be tested (250 μM, 25% DMSO) and 3.8 μl HBSS, hepes 20 mM were added (on the Minitrak Va.). 25 μl 72 nM Trypsin was then added using the FLIPR.
The fluorescence was measured on the FLIPR as specified above.

PAR-2Mut2 receptor [4] = biological target: T1, PAR-2Mut2 receptor; test: Beta-lactamase reporter assay, CHO-NFAT-PAR-2Mut2 cells; type: cell-based; conditions: FIG. 6
Description: In a 96-well or 384-well microplate, […] the wild-type PAR-2 receptor (CHO-NFAT-PAR-2WT) or the CHO-NFAT cells expressing the PAR-2Mut2 receptor (CHO-NFAT-PAR-2mut2), in a proportion of 4×10^4 for a 96-well plate or 1×10^4 for a 384-well plate, for 4 hours, at 37° C., in an atmosphere containing 5% CO2 and in a modified Dulbecco medium (Lifetech, Gaithersburg, Md.) containing 100 μg/ml of gentamycin. The cells were placed in the dark for 1 hour at ambient temperature with 12 μM of CCF4-AM (Aurora Biosciences, San Diego, Calif.). The fluorescence was measured with a Fluostar fluorimeter (BMG, Germany). The excitation occurs at 405 nm and the emission is recorded at both 460 and 535 nm. The fluorescence ratio (460 nm/535 nm) is estimated after elimination of the background noise (medium without cells). The ED50 is considered to be the concentration of SLIGRL-NH2 necessary to achieve 50% of the maximum fluorescence ratio.
The CHO-NFAT-beta-lactamase cells stimulated with SLIGRL-NH2 in the medium mentioned above (4×10^4 cells/well) were used as control. All the reagents were added with the activating agent (chemical or referenced compounds), unless otherwise indicated.

[5] = biological target: T3, truncated PAR-2 receptor PAR-2Mut2 expressed on CHO-NFAT cells (CHO-NFAT-PAR-2Mut2) (human, UniProt P55085 43-397); test: cell-based or functional assay
T3 sequence: T1 sequence (P55085 43-397) with G96A

[6] = biological target: T4, wild-type PAR-2 receptor expressed on CHO-NFAT cells (CHO-NFAT-PAR-2WT) (human, UniProt P55085 37-397); test: cell-based or functional assay
T4 sequence (looked up): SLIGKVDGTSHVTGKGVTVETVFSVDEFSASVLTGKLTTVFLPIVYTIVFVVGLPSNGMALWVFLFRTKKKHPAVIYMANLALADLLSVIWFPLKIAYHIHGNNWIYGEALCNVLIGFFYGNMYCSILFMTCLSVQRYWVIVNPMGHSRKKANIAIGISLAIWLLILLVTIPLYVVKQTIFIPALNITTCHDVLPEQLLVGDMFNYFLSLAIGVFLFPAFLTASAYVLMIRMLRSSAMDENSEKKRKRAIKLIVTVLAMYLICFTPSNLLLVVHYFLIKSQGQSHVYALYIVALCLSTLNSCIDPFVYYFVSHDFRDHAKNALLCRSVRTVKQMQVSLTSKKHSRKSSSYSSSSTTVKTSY

SLIGRL [SLIGRL-NH2, synthetic ligand (Neosystème)]
Fluorescence after stimulation, compared with CHO-PAR2-WT cells (PAR-2Mut2 receptor [1]; CHO-NFAT-PAR-2Mut2 cells, SLIGRL-NH2 0.1 μM to 100 μM): higher

trypsin
Activation of cells by trypsin (beta-lactamase fluorescence) (CHO-NFAT cells [2]): not activated | Activation of cells by trypsin (FLIPR calcium release) (PAR-2Mut3 receptor): not activated | Activation of cells by trypsin (FLIPR calcium release) (CHO-NFAT cells [3]): not activated | Activation of cells by trypsin (beta-lactamase fluorescence) (PAR-2Mut2 receptor [4]): not activated | Activation of cells by trypsin (FLIPR calcium release) (PAR-2Mut2 receptor [1]; CHO-NFAT-PAR2-MUT2 cells): not activated

B1: SLIGRL-NH2 synthetic ligand (peptide)
peptide: SLIGRL-NH2
ED50 (beta-lactamase reporter, fluorescence ratio 460 nm/535 nM) [5]: 0.2 µM | ED50 (beta-lactamase reporter, fluorescence ratio 460 nm/535 nM) [6]: 10 µM
